Patent US5434133A, “CNP analog peptides and their use” (Suntory Limited, priority 1991, dated 1995)
Entries after “also recorded” stand apart in the source; their conditions may differ. Where a SMILES comes first, the peptide text is derived from it. Bridges are numbered along the chain shown (N, C = ends). Where no end group is shown, it is not given here.

How the values were obtained:
[1] = system: cultured vascular smooth muscle cells (VSMC) derived from the aortas of rats; test: cGMP producing activity in cultured VSMC (cGMP radioimmunoassay); assay type: cell-based, rat; settings: for cGMP producing activity (in words): comparison with CNP-22 or α-hANP; for cGMP producing activity (% increase for 1 μm): specific activity compared to 1 μm α-hANP (2000 fmol/400000 cells) = 100, peptide at 1 μm
Experimental: 1-1: Measurement of CGMP Producing Activity
The above-mentioned activity of compounds synthesized according to the present invention was measured by the methods of Hirata et al. (Biochem. Biophys. Res. Commun., 128, 538, 1985) and Scarborough et al. (J. Biol. Chem., 261, 12960, 1986). The cells used were cultured vascular smooth muscle cells (hereunder abbreviated as VSMC) derived from the aortas of rats. From 10^-9 to 10^-6 M of α-hANP or a 20 peptide of interest was incubated together with VSMC and the amount cGMP produced was measured by cGMP radioimmunoassay. Percent maximum reactivity for each peptide, with the value of maximum reactivity for α-hANP being taken as 100%, was used as an indicator of activity.

[2] = system: cultured vascular smooth muscle cells (VSMC) derived from the aortas of rats; test: Cell growth suppressing activity: [3H] thymidine uptake (DNA synthesis inhibition) in VSMC; assay type: cell-based, rat; settings: for % Inhibition of 3H-thymidine uptake: 0.1 μm of each peptide, BSMC line stimulated with PDGF (20 ng/ml); for intensity of DNA synthesis / cell growth suppressing action relative to α-hANP: rat VSMC, compared with α-hANP
Experimental: 1-2: Measurement of Cell Growth Suppressing Activity
Cell growth suppressing activity was evaluated in accordance with the method of Kariya et al. (Atherosclerosis, 80, 143-147, 1990) by measuring the uptake of [^3 H] thymidine into cells as an indicator of percent DNA synthesis inhibition using the above-identified VSMC. Cells tuned to a stationary phase were incubated at 37° C. for 14 h with each sample added in the presence of 1% serum or 20 ng/ml of PDGF (platelet derived growth factor). Then, following the addition of 37 kBq/ml of [^3 H] thymidine, the incubation was continued for another 4 h and the radioactivity of [^3 H] thymidine incorporated into the cells was measured. The values of measurement were such that the uptake of [^3 H] thymidine for the case where only 1% serum or PDGF was added in the absence of peptide was taken as 100%, with the percent suppression due to the peptide addition being accordingly calculated.

[3] = system: cultured vascular smooth muscle cells (VSMC) derived from the aortas of rats; settings: Furuya et al. 1990; cited from earlier work

Row | Compound | cGMP producing activity (in words) ([1]; rat VSMC) | cGMP producing activity (% increase for 1 μm) [1] [%] | % Inhibition of 3H-thymidine uptake [2] [%] | cGMP producing activity relative to α-hANP ([1]; rat VSMC, times as high activity as α-hANP) | increase of intracellular cGMP level in VSMC compared with ANP or BNP [3] | intensity of DNA synthesis / cell growth suppressing action relative to α-hANP [2] [times] | suppression of DNA synthesis of rat VSMC (in words) ([2]; FIGS. 2, 3 and 4)
1 | CC[C@H](C)[C@@H]1NC(=O)[C@H](CCCNC(=N)N)NC(=O)[C@H](CC(=O)O)NC(=O)[C@H](CCSC)NC(=O)[C@H](CCCNC(=N)N)NC(=O)CNC(=O)CNC(=O)[C@H](Cc2ccccc2)NC(=O)[C@@H](NC(=O)CNC(=O)[C@H](CCCCN)NC(=O)[C@H](CO)NC(=O)[C@H](CC(C)C)NC(=O)CN)CSSC[C@@H](C(=O)N[C@@H](CC(N)=O)C(=O)N[C@@H](CO)C(=O)N[C@@H](Cc2ccccc2)C(=O)N[C@@H](CCCNC(=N)N)C(=O)N[C@@H](Cc2ccc(O)cc2)C(=O)O)NC(=O)[C@H](CCC(=O)O)NC(=O)[C@H](CC(C)C)NC(=O)[C@H](CCC(=O)O)NC(=O)[C@H](CO)NC(=O)[C@H](CCC(N)=O)NC(=O)[C@H](C)NC(=O)CNC1=O [Compound 2, H-Gly-Leu-Ser-Lys-Gly-Cys-Phe-Gly-Gly-Arg-Met-Asp-Arg-Ile-Gly-Ala-Gln-Ser- Glu-Leu-Glu-Cys-Asn-Ser-Phe-Arg-Tyr-OH] (H-GLSKGCFGGRMDRIGAQSELECNSFRY-OH; disulfide 6-22) | only a weak cGMP producing activity at a level comparable to α-hANP | 147 | 38 |  |  |  | 
2 | CC[C@H](C)[C@@H]1NC(=O)[C@H](CCCNC(=N)N)NC(=O)[C@H](CC(=O)O)NC(=O)[C@H](CC(C)C)NC(=O)[C@H](CCCCN)NC(=O)[C@H](CC(C)C)NC(=O)CNC(=O)[C@H](Cc2ccccc2)NC(=O)[C@@H](N)CSSC[C@@H](C(=O)O)NC(=O)CNC(=O)[C@H](CC(C)C)NC(=O)CNC(=O)[C@H](CO)NC(=O)[C@H](CCSC)NC(=O)[C@H](CO)NC(=O)CNC1=O [Compound 5, CFGLKLDRIGSMSGLGC] (H-CFGLKLDRIGSMSGLGC-OH; disulfide 1-17) | strong cGMP producing activity at a comparable level to that exhibited by CNP-22 | 616 | 65 |  |  |  | 
3 | CC[C@H](C)[C@@H]1NC(=O)[C@H](CCCNC(=N)N)NC(=O)[C@H](CC(=O)O)NC(=O)[C@H](CC(C)C)NC(=O)[C@H](CCCCN)NC(=O)CNC(=O)CNC(=O)[C@H](Cc2ccccc2)NC(=O)[C@@H](NC(=O)CNC(=O)[C@H](CCCCN)NC(=O)[C@H](CO)NC(=O)[C@H](CC(C)C)NC(=O)CN)CSSC[C@@H](C(=O)O)NC(=O)CNC(=O)[C@H](CC(C)C)NC(=O)CNC(=O)[C@H](CO)NC(=O)[C@H](CCSC)NC(=O)[C@H](CO)NC(=O)CNC1=O [Compound 6] (H-GLSKGCFGGKLDRIGSMSGLGC-OH; disulfide 6-22) | lower activity than CNP-22 (but higher than that of α-hANP); also recorded: lower in cGMP producing activity than the other one- and two-residue substituted derivatives | 344 | 49 |  |  |  | 
4 | CC[C@H](C)[C@@H]1NC(=O)[C@H](CCCNC(=N)N)NC(=O)[C@H](CC(=O)O)NC(=O)[C@H](CCSC)NC(=O)[C@H](CCCNC(=N)N)NC(=O)CNC(=O)CNC(=O)[C@H](Cc2ccccc2)NC(=O)[C@@H](NC(=O)CNC(=O)[C@H](CCCCN)NC(=O)[C@H](CO)NC(=O)[C@H](CC(C)C)NC(=O)CN)CSSC[C@@H](C(=O)O)NC(=O)CNC(=O)[C@H](CC(C)C)NC(=O)CNC(=O)[C@H](CO)NC(=O)[C@H](CCSC)NC(=O)[C@H](CO)NC(=O)CNC1=O [Compound 14] (H-GLSKGCFGGRMDRIGSMSGLGC-OH; disulfide 6-22) | marked drop in activity | 23 | 17 |  |  |  | 
5 | CC[C@H](C)[C@@H]1NC(=O)[C@H](CCCNC(=N)N)NC(=O)[C@H](CC(=O)O)NC(=O)[C@H](CC(C)C)NC(=O)[C@H](CCCCN)NC(=O)[C@H](CC(C)C)NC(=O)CNC(=O)[C@H](Cc2ccccc2)NC(=O)[C@@H](N)CSSC[C@@H](C(=O)N[C@@H](CC(N)=O)C(=O)N[C@@H](CO)C(=O)N[C@@H](Cc2ccccc2)C(=O)N[C@@H](CCCNC(=N)N)C(=O)N[C@@H](Cc2ccc(O)cc2)C(=O)O)NC(=O)CNC(=O)[C@H](CC(C)C)NC(=O)CNC(=O)[C@H](CO)NC(=O)[C@H](CCC(N)=O)NC(=O)[C@H](C)NC(=O)CNC1=O [Compound 15, [Leu10, Lys11, Leu12] α-hANP (7-28)] (H-CFGLKLDRIGAQSGLGCNSFRY-OH; disulfide 1-17) | strong cGMP producing activity at a substantially comparable level to CNP-22 | 559 | 72 | 4-6 times |  |  | 
6 | CNP: C-type natriuretic peptide, named generically in the text (GLSKGCFGLKLDRIGSMSGLGC; disulfide 6-22 (inferred); ends not checked; UniProt P23582 105-126, looked up) [reference compound] |  |  |  |  | several times as much | 10 | 
7 | hCNP-53: human CNP-53, CNP-22 with 31 amino acid residues attached to the N-terminus (DLRVDTKSRAAWARLLQEHPNARKYKGANKKGLSKGCFGLKLDRIGSMSGLGC; disulfide 37-53 (inferred); ends not checked; UniProt P23582 74-126, looked up) [reference compound] |  | 458 | 71 |  |  | 10 | suppress the DNA synthesis of rat VSMC in a dose-dependent manner
